Results: PMC3914206

What was measured:
Assay type in all cases: binding
panel of 442 kinases [1] = target: T1, panel of 442 kinases (Homo sapiens, UniProt P54756); conditions: Compound Concentration 10 µM
T1 construct: purchased KINOMEscan
Description: (§1) We assessed the selectivity of members of this scaffold using the KINOMEscan methodology across a near comprehensive panel of 442 kinases [[18,27]].

panel of 442 kinases [2] = target: T2, panel of 442 kinases (Homo sapiens, UniProt Q16620); conditions: kinase TRKB; compound concentration 10 µM
T2 construct: purchased KINOMEscan
T2 sequence (Q16620 32-822): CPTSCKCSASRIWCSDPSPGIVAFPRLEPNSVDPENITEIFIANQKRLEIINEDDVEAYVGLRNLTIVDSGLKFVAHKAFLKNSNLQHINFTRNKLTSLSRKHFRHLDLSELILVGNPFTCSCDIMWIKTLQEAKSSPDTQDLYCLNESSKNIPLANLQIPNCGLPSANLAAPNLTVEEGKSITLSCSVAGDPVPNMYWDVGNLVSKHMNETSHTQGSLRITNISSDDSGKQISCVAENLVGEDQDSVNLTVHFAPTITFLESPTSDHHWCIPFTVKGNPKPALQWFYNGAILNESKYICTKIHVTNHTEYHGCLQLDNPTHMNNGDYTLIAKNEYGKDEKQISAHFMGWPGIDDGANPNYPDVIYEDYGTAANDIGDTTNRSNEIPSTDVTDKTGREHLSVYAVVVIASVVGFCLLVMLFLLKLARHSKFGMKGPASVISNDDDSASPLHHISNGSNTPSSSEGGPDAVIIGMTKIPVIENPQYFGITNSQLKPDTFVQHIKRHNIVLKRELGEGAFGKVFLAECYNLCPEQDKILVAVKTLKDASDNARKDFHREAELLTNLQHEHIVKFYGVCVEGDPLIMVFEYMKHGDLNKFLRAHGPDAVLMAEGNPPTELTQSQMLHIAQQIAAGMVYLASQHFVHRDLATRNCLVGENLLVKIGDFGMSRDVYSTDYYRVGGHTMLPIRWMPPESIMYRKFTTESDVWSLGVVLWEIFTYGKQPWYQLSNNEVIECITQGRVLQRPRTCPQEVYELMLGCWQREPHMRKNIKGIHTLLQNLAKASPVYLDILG
Description: as §1

panel of 442 kinases [3] = target: T3, panel of 442 kinases (Homo sapiens, UniProt Q13164); conditions: Compound Concentration 10 µM
T3 construct: purchased KINOMEscan
T3 sequence (Q13164 whole entry): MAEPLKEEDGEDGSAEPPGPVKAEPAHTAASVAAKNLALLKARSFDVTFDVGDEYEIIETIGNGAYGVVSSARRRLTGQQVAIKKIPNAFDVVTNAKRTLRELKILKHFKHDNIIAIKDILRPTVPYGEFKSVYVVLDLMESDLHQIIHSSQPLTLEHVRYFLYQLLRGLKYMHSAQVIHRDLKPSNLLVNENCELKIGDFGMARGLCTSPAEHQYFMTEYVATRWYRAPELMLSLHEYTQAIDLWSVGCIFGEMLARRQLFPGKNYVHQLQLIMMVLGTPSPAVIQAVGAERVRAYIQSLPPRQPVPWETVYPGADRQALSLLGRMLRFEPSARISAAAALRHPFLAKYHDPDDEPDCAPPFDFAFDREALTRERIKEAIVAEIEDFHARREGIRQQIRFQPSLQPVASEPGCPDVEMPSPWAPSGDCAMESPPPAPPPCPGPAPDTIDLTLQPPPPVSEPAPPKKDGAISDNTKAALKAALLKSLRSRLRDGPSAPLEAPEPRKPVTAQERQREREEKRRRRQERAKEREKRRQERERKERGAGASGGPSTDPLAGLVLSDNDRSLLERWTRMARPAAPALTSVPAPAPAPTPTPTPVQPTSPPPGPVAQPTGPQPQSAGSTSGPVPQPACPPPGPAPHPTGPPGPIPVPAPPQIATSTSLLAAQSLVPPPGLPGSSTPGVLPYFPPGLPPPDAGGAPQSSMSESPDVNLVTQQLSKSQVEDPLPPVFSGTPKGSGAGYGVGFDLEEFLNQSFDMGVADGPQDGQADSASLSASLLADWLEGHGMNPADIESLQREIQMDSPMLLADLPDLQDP
Description: as §1

panel of 442 kinases [4] = target: T4, panel of 442 kinases (Homo sapiens, UniProt P54646); conditions: Compound Concentration 10 µM
T4 construct: purchased KINOMEscan
T4 sequence (P54646 whole entry): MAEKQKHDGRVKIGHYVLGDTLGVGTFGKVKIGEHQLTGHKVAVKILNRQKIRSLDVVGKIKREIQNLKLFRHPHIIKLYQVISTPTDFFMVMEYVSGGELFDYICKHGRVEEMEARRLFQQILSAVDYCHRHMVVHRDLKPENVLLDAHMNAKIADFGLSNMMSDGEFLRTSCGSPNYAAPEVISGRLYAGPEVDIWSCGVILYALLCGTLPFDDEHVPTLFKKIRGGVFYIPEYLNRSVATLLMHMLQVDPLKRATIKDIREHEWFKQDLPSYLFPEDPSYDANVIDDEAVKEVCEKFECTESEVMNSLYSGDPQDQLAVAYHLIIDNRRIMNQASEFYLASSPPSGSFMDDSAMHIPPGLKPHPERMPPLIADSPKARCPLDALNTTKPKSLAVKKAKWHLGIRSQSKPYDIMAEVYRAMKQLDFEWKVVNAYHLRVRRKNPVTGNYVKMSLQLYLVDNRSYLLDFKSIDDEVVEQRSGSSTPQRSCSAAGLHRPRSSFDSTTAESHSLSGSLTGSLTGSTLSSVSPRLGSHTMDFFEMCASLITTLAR
Description: as §1

T1 sequence (P54756 25-1037): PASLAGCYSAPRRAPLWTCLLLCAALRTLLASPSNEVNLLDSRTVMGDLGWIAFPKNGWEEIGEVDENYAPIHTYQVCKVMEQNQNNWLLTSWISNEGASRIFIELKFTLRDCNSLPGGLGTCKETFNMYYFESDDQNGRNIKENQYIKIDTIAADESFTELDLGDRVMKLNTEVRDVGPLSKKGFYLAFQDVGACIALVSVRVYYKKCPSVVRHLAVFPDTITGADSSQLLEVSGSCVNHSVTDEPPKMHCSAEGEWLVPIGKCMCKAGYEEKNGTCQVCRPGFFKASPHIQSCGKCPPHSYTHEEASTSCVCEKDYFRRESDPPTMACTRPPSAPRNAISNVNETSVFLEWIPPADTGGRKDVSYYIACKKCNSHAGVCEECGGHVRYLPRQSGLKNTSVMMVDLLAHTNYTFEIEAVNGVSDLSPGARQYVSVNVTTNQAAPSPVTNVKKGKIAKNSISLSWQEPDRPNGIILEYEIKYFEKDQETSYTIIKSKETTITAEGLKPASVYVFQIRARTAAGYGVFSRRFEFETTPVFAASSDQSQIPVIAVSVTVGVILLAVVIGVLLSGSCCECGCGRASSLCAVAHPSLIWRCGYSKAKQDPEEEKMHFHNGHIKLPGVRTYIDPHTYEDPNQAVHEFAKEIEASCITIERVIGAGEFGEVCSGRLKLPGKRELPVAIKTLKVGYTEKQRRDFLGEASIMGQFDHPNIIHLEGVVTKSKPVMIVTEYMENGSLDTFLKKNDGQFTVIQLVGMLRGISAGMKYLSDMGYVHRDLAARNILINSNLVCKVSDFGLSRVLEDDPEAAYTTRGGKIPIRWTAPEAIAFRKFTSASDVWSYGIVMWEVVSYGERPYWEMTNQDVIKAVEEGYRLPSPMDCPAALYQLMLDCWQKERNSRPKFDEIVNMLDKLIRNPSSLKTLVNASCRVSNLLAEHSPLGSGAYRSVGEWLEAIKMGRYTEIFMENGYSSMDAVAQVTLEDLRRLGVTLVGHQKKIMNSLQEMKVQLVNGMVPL

| Structure (SMILES) | KINOMEscan: EPHA5 (panel of 442 kinases [1]) | % Ctrl, TRKB (panel of 442 kinases [2]) | KINOMEscan: ERK5 (panel of 442 kinases [3]) | KINOMEscan: AMPK-alpha2 (panel of 442 kinases [4]) |
| --- | --- | --- | --- | --- |
| COc1cc(C(=O)N2CCC(N3CCN(C)CC3)CC2)ccc1Nc1ncc2c(n1)N(C1CCCC1)c1ccccc1C(=O)N2C [Compound 25, 11-cyclopentyl-2-((2-methoxy-4-(4-(4-methylpiperazin-1-yl)piperidine-1-carbonyl)phenyl)amino)-5-methyl-5H-benzo[e]pyrimido[5,4-b][1,4]diazepin-6(11H)-one] | 99 | 83 % Ctrl | 0.05 | 76 |
| CCOc1cc(C(=O)N2CCC(N3CCN(C)CC3)CC2)ccc1Nc1ncc2c(n1)N(C1CCCC1)c1ccccc1C(=O)N2C [Compound 26] | 100 | 100 % Ctrl | 0.1 | 100 |
| COc1cc(C(=O)N2CCC(N3CCN(C)CC3)CC2)ccc1Nc1ncc2c(n1)N1CCc3cccc(c31)C(=O)N2C [Compound 24] | 94 | – | – | – |
| COc1cc(C(=O)N2CCC(N3CCN(C)CC3)CC2)ccc1Nc1ncc2c(n1)N(C)c1ccccc1C(=O)N2C [15 (LRRK2-IN-1)] | 95 | 100 % Ctrl | 0.05 | 66 |
